Target: T1, Human CaV2.2 channels (Homo sapiens, UniProt Q00975)
T1 construct: expressed in transfected cells
Test: Fluorescence assay for CaV2.2 channels using potassium depolarization to induce channel opening (FLIPR, Fluo 4)
Format: cell-based
Conditions: 30 mM KCl (alternative assay buffer, inactivated channel state), HEK293 cells; for inhibition at 3 µM: HEK293, 3 μM test compound, read-out: Activity Category: %-Inhib (CaV2.2) @3 μM @30 mM KCl; for Activity Category: %-Inhib (CaV2.2) @3 μM @30 mM KCl: 3 μM test compound
From the text: In the process, the Ca^2+ influx is quantified in the FLIPR assay with the aid of a Ca^2+-sensitive dye (type Fluo-4, Molecular Probes Europe BV, Leiden, the Netherlands) in a fluorescent imaging plate reader (FLIPR 3, Molecular Devices, Sunnyvale, USA), as described hereinafter.
2.1 Fluorescence Assay for CaV2.2 Channels Using Potassium Depolarization to Induce Channel Opening
Human CaV2.2 channels were stably expressed in HEK293 cells together with alpha2-delta and beta subunits of voltage gated calcium channels. In addition, an inwardly rectifying potassium channel (Kir2.3) was stably expressed in these cells to augment control of the cell membrane potential by the concentration of extracellular potassium ions. Raise of the extracellular potassium concentration leads to depolarization of the membrane potential and thus regulates the voltage dependent state of CaV2.2 channels. For preparation, cells were seeded in black poly-D-lysine coated 96-well plates (Becton Dickinson, Biocoat 4640) in 100 μL medium [500 mL DMEM/F-12 plus Glutamax (Invitrogen 31331-093) plus 5.5 mL MEM NEAA 100× (Invitrogen 11140-035) plus 50 mL FBS decomplemented (Invitrogen 10270-106) plus 200 μg/mL Geneticin (Invitrogen 10131-027) plus 50 μg/mL Hygromycin B (Invitrogen 10687-010) plus 2 μg/mL Blasticidin (anti-b15b Invivo-Gen) plus 0.2 μg/mL Puromycin (A 11138-03)] at a cell density of 30.000 cells per well. Plates were incubated at 37° C. (5% CO2) for 20 to 23 h. On the day of experiment medium was discarded and cells were loaded with Fluo 4 by addition of 100 μL of basic assay buffer (10 mM HEPES, 1 mM KCl, 149 mM NaCl, 0.8 mM CaCl2, 1.7 mM MgCl2, 10 mM Glucose, 0.1% BSA. pH 7.4) containing 2 μM Fluo 4 (Molecular Probes; F-14201), 0.01% pluronic acid (Molecular Probes; P-6866) and 2.5 mM probenecid (Molecular Probes; P36400). Cells were incubated in the dark at 25° C. for 60 min. Then dye containing buffer was discarded and […] basic (1 mM KCl) or alternative (30 mM KCl) assay buffer was added. The alternative assay buffer contained altered concentrations of KCl (30 mM) and NaCl (120 mM) and was used in order to promote the inactivated channel state. After that 25 μL of basic or alternative assay buffer with or without test compound were added and cells were incubated again in the dark at 25° C. for 15 min. Fluorescence intensity was measured on a FLIPR 3 instrument (Molecular Devices Corp., Sunnyvale, Calif.) with excitation at 480 nm and emission at 535 nm. After continuously reading fluorescence for 30 sec, 50 μL of basic assay buffer containing 210 mM KCl (NaCl omitted) were added for depolarization. Peak fluorescent signal intensity was determined and the amplitude of the peak signal, normalized to base line, was used to measure channel inhibition by test compounds.

T1 sequence (Q00975 whole entry): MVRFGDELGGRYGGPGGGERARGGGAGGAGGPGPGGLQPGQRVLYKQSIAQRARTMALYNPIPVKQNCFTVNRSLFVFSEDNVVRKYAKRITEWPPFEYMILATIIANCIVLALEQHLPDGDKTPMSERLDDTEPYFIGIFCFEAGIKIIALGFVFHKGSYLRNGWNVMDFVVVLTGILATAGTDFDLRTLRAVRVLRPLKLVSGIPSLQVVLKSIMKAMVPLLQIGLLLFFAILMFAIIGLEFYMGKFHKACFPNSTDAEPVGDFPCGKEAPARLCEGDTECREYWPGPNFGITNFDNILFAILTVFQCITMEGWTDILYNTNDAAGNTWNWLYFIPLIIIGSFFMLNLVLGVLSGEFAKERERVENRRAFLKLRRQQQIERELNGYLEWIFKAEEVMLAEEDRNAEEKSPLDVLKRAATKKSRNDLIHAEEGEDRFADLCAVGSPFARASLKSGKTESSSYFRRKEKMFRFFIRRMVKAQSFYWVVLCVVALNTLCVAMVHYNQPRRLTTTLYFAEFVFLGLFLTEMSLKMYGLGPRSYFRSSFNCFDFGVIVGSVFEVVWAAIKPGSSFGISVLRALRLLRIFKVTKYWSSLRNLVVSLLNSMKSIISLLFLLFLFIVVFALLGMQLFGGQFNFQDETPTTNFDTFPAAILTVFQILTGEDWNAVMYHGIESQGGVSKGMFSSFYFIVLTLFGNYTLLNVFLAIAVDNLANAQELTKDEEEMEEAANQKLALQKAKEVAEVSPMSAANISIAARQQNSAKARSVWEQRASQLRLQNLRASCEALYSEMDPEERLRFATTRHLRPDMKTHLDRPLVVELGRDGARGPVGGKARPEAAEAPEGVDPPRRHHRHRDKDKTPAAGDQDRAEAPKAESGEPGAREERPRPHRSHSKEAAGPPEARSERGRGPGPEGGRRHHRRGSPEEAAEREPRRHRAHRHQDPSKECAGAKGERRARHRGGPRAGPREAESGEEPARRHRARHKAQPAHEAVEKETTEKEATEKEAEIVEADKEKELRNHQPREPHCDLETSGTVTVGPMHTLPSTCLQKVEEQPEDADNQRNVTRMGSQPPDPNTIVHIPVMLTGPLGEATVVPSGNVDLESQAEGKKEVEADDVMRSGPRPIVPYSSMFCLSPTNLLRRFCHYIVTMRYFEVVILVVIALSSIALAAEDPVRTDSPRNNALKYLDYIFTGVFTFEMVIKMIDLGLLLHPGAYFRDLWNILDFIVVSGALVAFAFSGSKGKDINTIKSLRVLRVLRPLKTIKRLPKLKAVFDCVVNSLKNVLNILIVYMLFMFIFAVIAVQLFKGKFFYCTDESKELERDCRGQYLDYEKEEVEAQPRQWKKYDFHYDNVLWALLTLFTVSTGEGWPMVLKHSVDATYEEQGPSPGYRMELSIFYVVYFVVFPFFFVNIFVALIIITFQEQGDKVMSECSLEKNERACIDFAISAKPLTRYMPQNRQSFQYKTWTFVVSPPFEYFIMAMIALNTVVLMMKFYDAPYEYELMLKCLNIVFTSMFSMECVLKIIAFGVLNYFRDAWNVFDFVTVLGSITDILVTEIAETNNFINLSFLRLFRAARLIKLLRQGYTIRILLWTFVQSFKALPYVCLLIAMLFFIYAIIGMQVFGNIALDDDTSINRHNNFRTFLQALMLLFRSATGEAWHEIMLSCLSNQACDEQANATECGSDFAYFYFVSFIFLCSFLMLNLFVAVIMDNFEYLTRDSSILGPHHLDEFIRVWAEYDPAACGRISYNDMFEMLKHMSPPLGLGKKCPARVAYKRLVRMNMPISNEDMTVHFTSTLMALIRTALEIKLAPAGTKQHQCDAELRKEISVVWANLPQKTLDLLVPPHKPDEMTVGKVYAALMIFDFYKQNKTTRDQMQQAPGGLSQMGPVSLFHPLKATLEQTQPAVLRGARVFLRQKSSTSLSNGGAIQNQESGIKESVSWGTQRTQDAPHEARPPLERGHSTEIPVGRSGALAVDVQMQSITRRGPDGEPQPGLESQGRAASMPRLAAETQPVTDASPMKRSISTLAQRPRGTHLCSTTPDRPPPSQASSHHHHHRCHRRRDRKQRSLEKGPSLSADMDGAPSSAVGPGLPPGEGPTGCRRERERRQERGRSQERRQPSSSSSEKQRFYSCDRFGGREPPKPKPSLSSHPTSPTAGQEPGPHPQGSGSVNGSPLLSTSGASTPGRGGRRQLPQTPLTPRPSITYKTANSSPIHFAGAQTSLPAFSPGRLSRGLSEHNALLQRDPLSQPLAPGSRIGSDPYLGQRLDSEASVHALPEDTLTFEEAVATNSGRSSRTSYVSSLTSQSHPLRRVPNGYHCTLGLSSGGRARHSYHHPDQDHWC

SMILES | inhibition at 3 µM | Activity Category: %-Inhib (CaV2.2) @3 μM @30 mM KCl
CC1(S(=O)(=O)c2cccc(C(F)(F)F)c2)CCOC(c2cc(C(F)(F)F)nn2CCO)C1 (racemic) [Example 2 trans-rac, 2-[5-[4-Methyl-4-[[3-(trifluoromethyl)phenyl]sulfonyl]-tetrahydro-pyran-2-yl]-3-(trifluoromethyl)-1H-pyrazol-1-yl]-ethanol] | 40 to 75% | 
COCCCn1nc(C(F)(F)F)cc1C1CC(C)(S(=O)(=O)c2cccc(C(F)(F)F)c2)CCO1 (racemic) [Example 10 cis-rac, 1-(3-Methoxypropyl)-5-(4-methyl-4-((3-(trifluoromethyl)phenyl)sulfonyl)tetrahydro-2H-pyran-2-yl)-3-(trifluoromethyl)-1H-pyrazole] | > 95% | 
CC1(S(=O)(=O)c2cccc(C(F)(F)F)c2)CCOC(c2cc(C(F)(F)F)nn2CC2(N)CC2)C1 (racemic) [Example 15 cis-rac, [1-[[5-[4-Methyl-4-[[3-(trifluoromethyl)phenyl]sulfonyl]-tetrahydro-pyran-2-yl]-3-(trifluoromethyl)-1H-pyrazol-1-yl]-methyl]-cyclopropyl]-amine] | > 95% | 
CC1(S(=O)(=O)c2cccc(C(F)(F)F)c2)CCOC(c2cc(C(F)(F)F)nn2CS(C)(=O)=O)C1 (racemic) [Example 18 cis-rac, 1-(Methylsulfonyl-methyl)-5-[4-methyl-4-[[3-(trifluoromethyl)phenyl]sulfonyl]-tetrahydro-pyran-2-yl]-3-(trifluoromethyl)-1H-pyrazole] | > 95% | 
COCCn1nc(S(C)(=O)=O)cc1C1CC(C)(S(=O)(=O)c2cccc(C(F)(F)F)c2)CCO1 (racemic) [Example 23 cis-rac, 1-(2-Methoxyethyl)-5-(4-methyl-4-((3-(trifluoromethyl)phenyl)sulfonyl)tetrahydro-2H-pyran-2-yl)-3-(methylsulfonyl)-1H-pyrazole] | 75 to 95% | 
CC(CO)Cn1nc(C(F)(F)F)cc1C1CC(C)(S(=O)(=O)c2cccc(C(F)(F)F)c2)CCO1 (racemic) [Example 24 cis-rac, 2-Methyl-3-[5-[4-methyl-4-[[3-(trifluoromethyl)phenyl]sulfonyl]-tetrahydro-pyran-2-yl]-3-(trifluoromethyl)-1H-pyrazol-1-yl]-propan-1-ol] | > 95% | 
CC1(S(=O)(=O)c2cccc(C(F)(F)F)c2)CCOC(c2cc(C(F)(F)F)nn2CCO)C1 (stereo not drawn) [Example 2 cis-EN1, 2-[5-[4-Methyl-4-[[3-(trifluoromethyl)phenyl]sulfonyl]-tetrahydro-pyran-2-yl]-3-(trifluoromethyl)-1H-pyrazol-1-yl]-ethanol] | 75 to 95% | 
CC1(S(=O)(=O)c2cccc(C(F)(F)F)c2)CCOC(c2cc(C(F)(F)F)nn2CCO)C1 (stereo not drawn) [Example 2 cis-EN2, 2-[5-[4-Methyl-4-[[3-(trifluoromethyl)phenyl]sulfonyl]-tetrahydro-pyran-2-yl]-3-(trifluoromethyl)-1H-pyrazol-1-yl]-ethanol] |  | A (“A”: %-Inhibition >95%)
CC1(S(=O)(=O)c2cccc(C(F)(F)F)c2)CCOC(c2cc(S(C)(=O)=O)nn2CCO)C1 (stereo not drawn) [Example 4 cis-EN1, 2-[3-Methylsulfonyl-5-[4-methyl-4-[[3-(trifluoromethyl)phenyl]sulfonyl]-tetrahydro-pyran-2-yl]-1H-pyrazol-1-yl]-ethanol] | 40 to 75% | 
COCn1nc(C(F)F)cc1C1CC(C)(S(=O)(=O)c2cccc(C(F)(F)F)c2)CCO1 (stereo not drawn) [Example 5 cis-EN1, 3-(Difluoromethyl)-1-(methoxymethyl)-5-(4-methyl-4-((3-(trifluoromethyl)phenyl)sulfonyl)tetrahydro-2H-pyran-2-yl)-1H-pyrazole] | 75 to 95% | 
COCn1nc(C(F)F)cc1C1CC(C)(S(=O)(=O)c2cccc(C(F)(F)F)c2)CCO1 (stereo not drawn) [Example 5 cis-EN2, 3-(Difluoromethyl)-1-(methoxymethyl)-5-(4-methyl-4-((3-(trifluoromethyl)phenyl)sulfonyl)tetrahydro-2H-pyran-2-yl)-1H-pyrazole] |  | A (“A”: %-Inhibition >95%)
CC(C)(CO)n1nc(C(F)(F)F)cc1C1CC(C)(S(=O)(=O)c2cccc(C(F)(F)F)c2)CCO1 (stereo not drawn) [Example 6 cis-EN1, 2-Methyl-2-[5-[4-methyl-4-[[3-(trifluoromethyl)phenyl]sulfonyl]-tetrahydro-pyran-2-yl]-3-(trifluoromethyl)-1H-pyrazol-1-yl]-propan-1-ol] | 75 to 95% | 
CC(C)(CO)n1nc(C(F)(F)F)cc1C1CC(C)(S(=O)(=O)c2cccc(C(F)(F)F)c2)CCO1 (stereo not drawn) [Example 6 cis-EN2, 2-Methyl-2-[5-[4-methyl-4-[[3-(trifluoromethyl)phenyl]sulfonyl]-tetrahydro-pyran-2-yl]-3-(trifluoromethyl)-1H-pyrazol-1-yl]-propan-1-ol] |  | A (“A”: %-Inhibition >95%)
CC1(S(=O)(=O)c2cccc(C(F)(F)F)c2)CCOC(c2cc(C(F)(F)F)nn2CCCO)C1 (stereo not drawn) [Example 9 cis-EN1, 3-[5-[4-Methyl-4-[[3-(trifluoromethyl)phenyl]sulfonyl]-tetrahydro-pyran-2-yl]-3-(trifluoromethyl)-1H-pyrazol-1-yl]-propan-1-ol] | 75 to 95% | 
CC1(S(=O)(=O)c2cccc(C(F)(F)F)c2)CCOC(c2cc(C(F)(F)F)nn2CC(N)=O)C1 (stereo not drawn) [Example 11 cis-EN1, 2-[5-[4-Methyl-4-[[3-(trifluoromethyl)phenyl]sulfonyl]-tetrahydro-pyran-2-yl]-3-(trifluoromethyl)-1H-pyrazol-1-yl]-acetamide] | 75 to 95% | 
CC1(S(=O)(=O)c2cccc(C(F)(F)F)c2)CCOC(c2cc(C(F)(F)F)nn2C2COC2)C1 (stereo not drawn) [Example 17 cis-EN1, 5-[4-Methyl-4-[[3-(trifluoromethyl)phenyl]sulfonyl]-tetrahydro-pyran-2-yl]-1-(oxetan-3-yl)-3-(trifluoromethyl)-1H-pyrazole] | 75 to 95% | 
CC1(S(=O)(=O)c2cccc(C(F)(F)F)c2)CCOC(c2cc(C(F)(F)F)nn2CCS(C)(=O)=O)C1 (stereo not drawn) [Example 19 cis-EN1, 1-(2-Methylsulfonyl-ethyl)-5-[4-methyl-4-[[3-(trifluoromethyl)phenyl]sulfonyl]-tetrahydro-pyran-2-yl]-3-(trifluoromethyl)-1H-pyrazole] |  | B (“B”: %-Inhibition >75% up to ≤95%)
CC1(S(=O)(=O)c2cccc(C(F)(F)F)c2)CCOC(c2cc(C(F)(F)F)nn2CCS(C)(=O)=O)C1 (stereo not drawn) [Example 19 cis-EN2, 1-(2-Methylsulfonyl-ethyl)-5-[4-methyl-4-[[3-(trifluoromethyl)phenyl]sulfonyl]-tetrahydro-pyran-2-yl]-3-(trifluoromethyl)-1H-pyrazole] | > 95% | 
CC1(S(=O)(=O)c2cccc(C(F)(F)F)c2)CCOC(c2cc(C(F)(F)F)nn2C2CS(=O)(=O)C2)C1 (stereo not drawn) [Example 20 cis-EN1, 3-[5-[4-Methyl-4-[[3-(trifluoromethyl)phenyl]sulfonyl]-tetrahydro-pyran-2-yl]-3-(trifluoromethyl)-1H-pyrazol-1-yl]-thietane-1,1-dioxide] | 75 to 95% | 
COCn1nc(C(F)(F)F)cc1C1CC(C)(S(=O)(=O)c2cccc(C(F)(F)F)c2)CCO1 (stereo not drawn) [Example 21 cis-EN1, 1-(Methoxymethyl)-5-[4-methyl-4-[[3-(trifluoromethyl)phenyl]sulfonyl]-tetrahydro-pyran-2-yl]-3-(trifluoromethyl)-1H-pyrazole] | > 95% | 
CC1(S(=O)(=O)c2cccc(C(F)(F)F)c2)CCOC(c2cc(S(=O)(=O)C(F)F)nn2CCO)C1 (stereo not drawn) [Example 25 cis-EN1, 2-[3-(Difluoro-methylsulfonyl)-5-[4-methyl-4-[[3-(trifluoromethyl)phenyl]sulfonyl]-tetrahydro-pyran-2-yl]-1H-pyrazol-1-yl]-ethanol] | 75 to 95% | 
CC1(S(=O)(=O)c2cccc(C(F)(F)F)c2)CCOC(c2cc(S(=O)(=O)C(F)F)nn2CCO)C1 (stereo not drawn) [Example 25 cis-EN2, 2-[3-(Difluoro-methylsulfonyl)-5-[4-methyl-4-[[3-(trifluoromethyl)phenyl]sulfonyl]-tetrahydro-pyran-2-yl]-1H-pyrazol-1-yl]-ethanol] |  | A (“A”: %-Inhibition >95%)

Source: patent US10100041B2, “Pyrazolyl substituted tetrahydropyranylsulfones” (GRÜNENTHAL GMBH, priority 2015, dated 2018)
